Columns and labels:
[1] = tested on: obese diabetic db/db transgenic mice; conditions: cited from earlier work
[2] = target: T1, Human glucocorticoid receptors (Homo sapiens, UniProt P04150); experiment: Radioligand filter binding assay, displacement of 3(H)-dexamethasone from human glucocorticoid receptor cytosol; conditions: 1.7 μM test compound, inhibition of 3(H)-dex binding to hGR; for inhibition at 1.7 µM: read-out: GR BINDING (% Inhibition @ 1.7 μM)
T1 construct: made in house; host or cells: Sf9 insect cells, recombinant baculovirus (BAC-TO-BAC)
T1 sequence (P04150 1-777): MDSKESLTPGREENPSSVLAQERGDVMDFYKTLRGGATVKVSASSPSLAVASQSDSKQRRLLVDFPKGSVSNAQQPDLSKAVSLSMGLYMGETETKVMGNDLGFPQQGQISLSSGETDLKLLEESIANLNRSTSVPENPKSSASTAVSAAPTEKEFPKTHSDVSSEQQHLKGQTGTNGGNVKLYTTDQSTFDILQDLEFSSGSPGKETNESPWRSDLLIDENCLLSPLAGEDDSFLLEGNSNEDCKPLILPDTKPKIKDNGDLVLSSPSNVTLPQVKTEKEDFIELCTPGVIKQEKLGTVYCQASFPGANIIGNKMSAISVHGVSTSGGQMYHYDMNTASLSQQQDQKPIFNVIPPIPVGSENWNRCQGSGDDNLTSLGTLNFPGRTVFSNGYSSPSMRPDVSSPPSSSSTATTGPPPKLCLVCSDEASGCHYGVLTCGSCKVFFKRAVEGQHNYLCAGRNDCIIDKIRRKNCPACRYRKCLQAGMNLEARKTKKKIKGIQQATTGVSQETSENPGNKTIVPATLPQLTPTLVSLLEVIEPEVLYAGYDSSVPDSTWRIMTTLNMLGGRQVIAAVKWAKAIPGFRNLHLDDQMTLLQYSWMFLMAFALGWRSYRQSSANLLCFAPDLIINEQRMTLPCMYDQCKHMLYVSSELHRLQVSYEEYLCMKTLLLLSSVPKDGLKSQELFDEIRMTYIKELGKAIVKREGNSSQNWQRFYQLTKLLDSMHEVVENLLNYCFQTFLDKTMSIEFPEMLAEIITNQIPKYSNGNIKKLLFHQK

[3] = target: T2, progesterone receptor (PR) (Homo sapiens, UniProt P06401); experiment: Radioligand binding assay with progesterone receptor cytosol (similar protocol)
T2 sequence (P06401 1-933): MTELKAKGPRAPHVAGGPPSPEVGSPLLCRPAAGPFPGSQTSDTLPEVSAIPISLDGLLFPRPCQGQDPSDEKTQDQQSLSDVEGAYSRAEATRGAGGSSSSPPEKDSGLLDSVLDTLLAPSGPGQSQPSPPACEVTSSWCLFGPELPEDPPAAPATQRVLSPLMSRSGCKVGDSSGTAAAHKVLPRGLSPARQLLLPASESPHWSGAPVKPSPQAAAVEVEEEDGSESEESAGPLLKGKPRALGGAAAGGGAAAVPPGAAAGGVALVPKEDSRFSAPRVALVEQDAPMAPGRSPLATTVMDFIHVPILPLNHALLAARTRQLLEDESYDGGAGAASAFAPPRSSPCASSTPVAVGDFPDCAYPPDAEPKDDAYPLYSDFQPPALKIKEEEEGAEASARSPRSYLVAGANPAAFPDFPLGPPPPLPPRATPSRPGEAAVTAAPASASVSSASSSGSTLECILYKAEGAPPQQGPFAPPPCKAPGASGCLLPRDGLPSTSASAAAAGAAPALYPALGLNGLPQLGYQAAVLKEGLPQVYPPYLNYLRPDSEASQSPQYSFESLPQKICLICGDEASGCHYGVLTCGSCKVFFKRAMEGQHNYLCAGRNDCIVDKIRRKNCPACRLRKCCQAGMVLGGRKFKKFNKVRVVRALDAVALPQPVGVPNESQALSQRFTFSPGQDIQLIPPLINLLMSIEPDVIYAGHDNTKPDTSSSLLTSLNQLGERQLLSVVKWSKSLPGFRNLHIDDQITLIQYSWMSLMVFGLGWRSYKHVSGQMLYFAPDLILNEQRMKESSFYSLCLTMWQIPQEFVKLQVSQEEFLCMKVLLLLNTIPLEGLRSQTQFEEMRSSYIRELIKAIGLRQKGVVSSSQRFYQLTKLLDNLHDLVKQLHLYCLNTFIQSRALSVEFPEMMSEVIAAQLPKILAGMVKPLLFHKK
Excerpt: Methods for Radioligand Binding Studies with Human Glucocorticoid and Progesterone Receptor Cytosol
A similar protocol was employed to measure affinity of the compounds of the present invention for progesterone receptor (PR).

| Compound | melting point | inhibition at 1.7 µM [2] | IC50 [3] | GR BINDING (% Inhibition @ 1.7 μM) [2] | mRNA levels of PEPCK and glucose-6-phosphate in the liver ([1]; liver, db/db mice) | reduction of plasma glucose levels ([1]; obese diabetic db/db transgenic mice) |
| --- | --- | --- | --- | --- | --- | --- |
| CC#C[C@]1(O)CC[C@H]2[C@@H]3CCC4=CC(=O)CCC4=C3[C@@H](c3ccc(N(C)C)cc3)C[C@@]21C [mifepristone] | – | – | – | – | reduces | 50% |
| (1-methoxy-2-hydroxy-6-phenyl-6H-dibenzo(b,d)pyran-8-yl)methanesulfonamide [Example 65] | – | – | 2840 nM | 94.9% | – | – |
| (1-methoxy-6-(5-chlorothien-2-yl)-6H-dibenzo(b,d)pyran-8-yl)methanesulfonamide [Example 58] | – | – | 524 nM | 94.6% | – | – |
| (1-difluoromethoxy-6-allyl-6H-dibenzo(b,d)pyran-8-yl)-methanesulfonamide [Example 31] | – | – | 79 nM | 90.0% | – | – |

Continued, in another order:

| melting point | inhibition at 1.7 µM [2] | IC50 [3] | GR BINDING (% Inhibition @ 1.7 μM) [2] | Compound | mRNA levels of PEPCK and glucose-6-phosphate in the liver ([1]; liver, db/db mice) | reduction of plasma glucose levels ([1]; obese diabetic db/db transgenic mice) |
| --- | --- | --- | --- | --- | --- | --- |
| 217 to 218 °C | 82.1% | 5630 nM | – | COc1cccc2c1-c1ccc(NS(C)(=O)=O)c(C)c1C(c1cccc(C(F)(F)F)c1)O2 (stereo not shown) [Example 1, (1-methoxy-6-(3-trifluoromethyl)phenyl-7-methyl-6H-dibenzo(b,d)pyran-8-yl)methanesulfonamide] | – | – |
| – | 94.5% | 3480 nM | – | COc1cccc2c1-c1ccc(NS(C)(=O)=O)cc1C(c1ccc(C#N)cc1)O2 (stereo not shown) [Example 47] | – | – |
| – | – | 1280 nM | 85.6% | (1-difluoromethoxy-6-(4-(N-allyl-N-methylamino)phenyl)-6H-dibenzo(b,d)pyran-8-yl)-methanesulfonamide [Example 30] | – | – |
| – | – | 670 nM | 89.7% | (1-methoxy-6-(4-methylphenyl)-6H-dibenzo(b,d)pyran-8-yl)methanesulfonamide [Example 76] | – | – |
| – | – | 730 nM | 90.6% | (1-cyano-6-phenyl-6H-dibenzo(b,d)pyran-8-yl)methanesulfonamide [Example 43] | – | – |

— patent publication US6593480B2 (Abbott Laboratories, priority 1999, dated 2003)
